IC50 data for 19 molecules are collected here from US20230322767A1, “ARYL SUBSTITUTED PYRROLO-PYRIDINONES AND THERAPEUTIC USES THEREOF” (Bayer Aktiengesellschaft, priority 2020, published 2023).

What all share (type): biochemical
For one assay, the target named is CSNK1A1 (Homo sapiens (Human), UniProt P48729). As to the kind of experiment: CSNK1A1 Assay 2 (ADP-Glo, 1 μM ATP). The settings on record: median, read-out: CSNK1A1 Assay 2 IC50 [mol/l] (median). The gist of the method: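 ADP-Glo luminescence, taken as ADP formed, reports activity against biotinylated phospho-peptide substrate biotin-Ahx-KRRRAL-pS-VASLPGL at 1 μM ATP.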

The next assay concerns the target CSNK1D (Homo sapiens (Human), UniProt P48730). As to the kind of experiment: CSNK1D Assay (ADP-Glo, 1 μM ATP). The settings on record: median, read-out: CSNK1D IC50 [mol/l] (median). Put shortly: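 Enzyme preincubated with compound 15 min at 22° C in 50 mM HEPES pH 7.5 buffer with 10 mM MgCl2, 1 mM DTT; kinase reaction run at 1 μM ATP with biotinylated peptide substrate. ADP formed was detected by ADP-Glo luminescence as the measure of activity.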

The target of assay [1] is wild-type Epidermal Growth Factor Receptor (EGFR) (Homo sapiens (Human), UniProt P00533). Nature of the assay: WT-EGFR Kinase Assay (TR-FRET, 2 mM ATP). Put shortly: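 TR-FRET read-out of biotinylated peptide phosphorylation, taken as the 665/622 nm ratio after EDTA stop and 1 h detection at 22° C. Kinase: GST fusion of human EGFR aa R669–A1210, given a 15 min compound pre-binding step; reaction run at 2 mM ATP.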

The mark [2] stands for this setting: EGFR Wildtyp 2 mM ATP IC50 [mol/l] (median), median or individual measurements.
[3] abbreviates: read-out: EGFR Wildtyp 2 mM ATP IC50 [mol/l] (median), median or individual measurements.

pIC50: −log10 of the molar value. Read-outs that look alike come from different tables or passages of the source.

CSNK1A1, sequence (P48729 whole entry): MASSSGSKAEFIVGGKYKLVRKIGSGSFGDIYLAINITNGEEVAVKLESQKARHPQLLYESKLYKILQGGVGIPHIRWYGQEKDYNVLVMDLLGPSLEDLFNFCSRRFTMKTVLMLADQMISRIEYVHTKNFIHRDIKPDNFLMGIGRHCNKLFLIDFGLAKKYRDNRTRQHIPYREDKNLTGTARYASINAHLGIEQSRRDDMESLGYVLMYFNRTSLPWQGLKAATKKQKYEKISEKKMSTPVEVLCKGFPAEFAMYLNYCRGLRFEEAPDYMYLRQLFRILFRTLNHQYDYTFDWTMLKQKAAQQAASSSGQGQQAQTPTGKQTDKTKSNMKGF
wild-type Epidermal Growth Factor Receptor (EGFR), sequence (P00533 669-1210): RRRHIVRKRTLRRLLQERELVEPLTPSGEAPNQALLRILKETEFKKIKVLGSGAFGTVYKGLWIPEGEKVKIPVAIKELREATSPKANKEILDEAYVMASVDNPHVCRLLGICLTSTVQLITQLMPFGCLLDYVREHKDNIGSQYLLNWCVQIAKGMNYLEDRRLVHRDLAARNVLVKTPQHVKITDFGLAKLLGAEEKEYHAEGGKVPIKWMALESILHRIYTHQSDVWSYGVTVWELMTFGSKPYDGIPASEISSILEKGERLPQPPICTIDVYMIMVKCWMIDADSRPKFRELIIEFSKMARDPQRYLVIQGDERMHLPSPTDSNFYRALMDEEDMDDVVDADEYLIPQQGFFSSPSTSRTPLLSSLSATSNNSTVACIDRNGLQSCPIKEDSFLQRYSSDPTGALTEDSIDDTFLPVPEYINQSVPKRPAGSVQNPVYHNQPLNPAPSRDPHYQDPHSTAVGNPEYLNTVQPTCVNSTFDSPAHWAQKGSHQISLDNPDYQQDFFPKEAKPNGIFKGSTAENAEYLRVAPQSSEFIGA
CSNK1D, sequence (P48730 whole entry): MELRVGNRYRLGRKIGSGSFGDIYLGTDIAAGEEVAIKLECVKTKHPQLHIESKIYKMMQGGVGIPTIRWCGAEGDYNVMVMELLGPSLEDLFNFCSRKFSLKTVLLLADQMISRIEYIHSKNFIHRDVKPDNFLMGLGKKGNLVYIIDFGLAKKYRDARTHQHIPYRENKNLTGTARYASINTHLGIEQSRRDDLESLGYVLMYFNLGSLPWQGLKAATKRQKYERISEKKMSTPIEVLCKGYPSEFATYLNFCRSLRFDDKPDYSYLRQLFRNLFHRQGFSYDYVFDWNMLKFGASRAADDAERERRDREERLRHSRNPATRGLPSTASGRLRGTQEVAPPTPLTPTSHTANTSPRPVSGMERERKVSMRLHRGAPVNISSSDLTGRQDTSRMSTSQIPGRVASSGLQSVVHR

Turning to `CN1CCc2[nH]c(-c3ccnc(NC(=O)C(CC(F)F)c4ccc(F)cc4)c3)c(-c3cc(F)ccc3C#N)c2C1=O` (racemic) [Example 128, N-{4-[3-(2-cyano-5-fluorophenyl)-5-methyl-4-oxo-4,5,6,7-tetrahydro-1H-pyrrolo[3,2-c]pyridin-2-yl]pyridin-2-yl}-4,4-difluoro-2-(4-fluorophenyl)butanamide], the pIC50 at CSNK1A1 is 7.85; at CSNK1D, 7.92; in assay [1] (setting [2]), under 4.70.

As to `CC(C(=O)Nc1cc(-c2[nH]c3ccn(C)c(=O)c3c2-c2ccc(F)cc2)ccn1)c1ccc(F)cc1` (racemic) [Example 100, 2-(4-fluorophenyl)-N-{4-[3-(4-fluorophenyl)-5-methyl-4-oxo-4,5-dihydro-1H-pyrrolo[3,2-c]pyridin-2-yl]pyridin-2-yl}propanamide], the pIC50 on CSNK1A1 is 8.23; at CSNK1D, 8.07; in assay [1] (setting [2]), under 4.70.

In the case of `Cn1ccc2[nH]c(-c3ccnc(NC(=O)C(CC(F)F)c4ccc(F)cc4)c3)c(-c3ccc(F)cc3)c2c1=O` (single isomer, unassigned; (-)) [Example 108, (−)-4,4-difluoro-2-(4-fluorophenyl)-N-{4-[3-(4-fluorophenyl)-5-methyl-4-oxo-4,5-dihydro-1H-pyrrolo[3,2-c]pyridin-2-yl]pyridin-2-yl}butanamide], the pIC50 on CSNK1A1 was 7.82; on CSNK1D, 8.03; in assay [1] (setting [2]) it was 6.18.

Consider `CC(C(=O)Nc1cc(-c2[nH]c3ccn(C)c(=O)c3c2-c2ccc(F)cc2)ccn1)c1ccc(F)cc1` (single isomer, unassigned; (+)) [Example 102, (+)-2-(4-fluorophenyl)-N-{4-[3-(4-fluorophenyl)-5-methyl-4-oxo-4,5-dihydro-1H-pyrrolo[3,2-c]pyridin-2-yl]pyridin-2-yl}propanamide], for which the figures for the pIC50 (on CSNK1A1; at CSNK1D; in assay [1] (setting [2])) were 9.00, 8.70 and 6.06, respectively.

As to `Cn1ccc2[nH]c(-c3ccnc(NC(=O)Cc4ccc(F)cc4)c3)c(-c3ccccn3)c2c1=O` [Example 146, 2-(4-fluorophenyl)-N-{4-[5-methyl-4-oxo-3-(pyridin-2-yl)-4,5-dihydro-1H-pyrrolo[3,2-c]pyridin-2-yl]pyridin-2-yl}acetamide], the results for the pIC50 (at CSNK1A1; on CSNK1D; in assay [1] (setting [3])) were 8.48, 8.36 and under 4.70, respectively.

`CC(C(=O)Nc1cc(-c2[nH]c3ccn(C)c(=O)c3c2-c2cc(F)c(F)c(F)c2)ccn1)c1ccc(F)cc1` (racemic) [Example 117, 2-(4-fluorophenyl)-N-{4-[5-methyl-4-oxo-3-(3,4,5-trifluorophenyl)-4,5-dihydro-1H-pyrrolo[3,2-c]pyridin-2-yl]pyridin-2-yl}propanamide]: the pIC50 at CSNK1A1 was 8.33; on CSNK1D, 8.13; in assay [1] (setting [2]), under 4.70.

Consider `CC(C(=O)Nc1cc(-c2[nH]c3c(c2-c2cccnc2)C(=O)NC(C)(C)C3)ccn1)c1ccc(F)cc1` (racemic) [Example 97, N-{4-[6,6-dimethyl-4-oxo-3-(pyridin-3-yl)-4,5,6,7-tetrahydro-1H-pyrrolo[3,2-c]pyridin-2-yl]pyridin-2-yl}-2-(4-fluorophenyl)propanamide], for which the pIC50 is 8.09 on CSNK1A1, 7.85 on CSNK1D and under 4.70 in assay [1] (setting [2]).

For `CN1CC(C)(C)c2[nH]c(-c3ccnc(NC(=O)C(CC(F)F)c4ccc(F)cc4)c3)c(-c3ccccc3)c2C1=O` (single isomer, unassigned; (-)) [Example 151, (−)-4,4-difluoro-2-(4-fluorophenyl)-N-[4-(5,7,7-trimethyl-4-oxo-3-phenyl-4,5,6,7-tetrahydro-1H-pyrrolo[3,2-c]pyridin-2-yl)pyridin-2-yl]butanamide], the pIC50 on CSNK1A1 is 7.77; on CSNK1D, 7.72; in assay [1] (setting [2]), under 4.70.

For the molecule `O=C(Cc1ccc(F)cc1)Nc1cc(-c2[nH]c3c(c2-c2ccccc2)C(=O)NCC3)ccn1` [Example 72, 2-(4-fluorophenyl)-N-[4-(4-oxo-3-phenyl-4,5,6,7-tetrahydro-1H-pyrrolo[3,2-c]pyridin-2-yl)pyridin-2-yl]acetamide], the figures for the pIC50 (on CSNK1A1; at CSNK1D; in assay [1] (setting [3])) were 9.18, 8.89 and under 4.70, respectively.

As to `Cc1cccc(-c2c(-c3ccnc(NC(=O)Cc4ccc(F)cc4)c3)[nH]c3c2C(=O)NC(C)(C)C3)c1` [Example 86, N-{4-[6,6-dimethyl-3-(3-methylphenyl)-4-oxo-4,5,6,7-tetrahydro-1H-pyrrolo[3,2-c]pyridin-2-yl]pyridin-2-yl}-2-(4-fluorophenyl)acetamide], the results for the pIC50 (on CSNK1A1; on CSNK1D; in assay [1] (setting [3])) were 8.40, 8.28 and under 4.70, respectively.

Regarding `CC(C(=O)Nc1cc(-c2[nH]c3c(c2-c2cccnc2)C(=O)NC(C)(C)C3)ccn1)c1ccc(F)cc1` (single isomer, unassigned) [Example 98, N-{4-[6,6-dimethyl-4-oxo-3-(pyridin-3-yl)-4,5,6,7-tetrahydro-1H-pyrrolo[3,2-c]pyridin-2-yl]pyridin-2-yl}-2-(4-fluorophenyl)propanamide], the pIC50 on CSNK1A1 was 7.15; on CSNK1D it was 7.72; in assay [1] (setting [2]), under 4.70.

As to `CC(C(=O)Nc1cc(-c2[nH]c3c(c2-c2ccccc2)C(=O)N(C)CC3)ccn1)c1ccncc1` (stereo not shown) [Example 154, N-[4-(5-methyl-4-oxo-3-phenyl-4,5,6,7-tetrahydro-1H-pyrrolo[3,2-c]pyridin-2-yl)pyridin-2-yl]-2-(pyridin-4-yl)propanamide], the pIC50 was 8.29 at CSNK1A1, 8.22 at CSNK1D and under 4.70 in assay [1] (setting [2]).

As for `Cc1ccccc1-c1c(-c2ccnc(NC(=O)C(C)c3ccc(F)cc3)c2)[nH]c2ccn(C)c(=O)c12` (racemic) [Example 111, 2-(4-fluorophenyl)-N-{4-[5-methyl-3-(2-methylphenyl)-4-oxo-4,5-dihydro-1H-pyrrolo[3,2-c]pyridin-2-yl]pyridin-2-yl}propanamide], the pIC50 on CSNK1A1 was 7.43; at CSNK1D, 7.66; in assay [1] (setting [2]), under 4.70.

Turning to `CC(C(=O)Nc1cc(-c2[nH]c3c(c2-c2ccc(F)cc2F)C(=O)N(C)CC3)ccn1)c1ccc(F)cc1` (racemic) [Example 69, N-{4-[3-(2,4-difluorophenyl)-5-methyl-4-oxo-4,5,6,7-tetrahydro-1H-pyrrolo[3,2-c]pyridin-2-yl]pyridin-2-yl}-2-(4-fluorophenyl)propanamide], the pIC50 is 8.51 at CSNK1A1, 8.55 at CSNK1D and under 4.70 in assay [1] (setting [2]).

Turning to `CC(C(=O)Nc1cc(-c2[nH]c3ccn(C)c(=O)c3c2-c2ccc(Cl)s2)ccn1)c1ccc(F)cc1` (racemic) [Example 122, N-{4-[3-(5-chloro-2-thienyl)-5-methyl-4-oxo-4,5-dihydro-1H-pyrrolo[3,2-c]pyridin-2-yl]pyridin-2-yl}-2-(4-fluorophenyl)propanamide], the pIC50 at CSNK1A1 is 8.44; on CSNK1D, 8.05; in assay [1] (setting [2]) it was under 5.24; in assay [1] (setting [3]) it was under 5.24.

Regarding `Cc1ccc(-c2c(-c3ccnc(NC(=O)Cc4ccc(F)cc4)c3)[nH]c3c2C(=O)NC(C)(C)C3)cc1` [Example 92, N-{4-[6,6-dimethyl-3-(4-methylphenyl)-4-oxo-4,5,6,7-tetrahydro-1H-pyrrolo[3,2-c]pyridin-2-yl]pyridin-2-yl}-2-(4-fluorophenyl)acetamide], the pIC50 on CSNK1A1 is 8.35; on CSNK1D, 8.24; in assay [1] (setting [3]) it was under 4.70.

Consider `CC1(C)Cc2[nH]c(-c3ccnc(NC(=O)Cc4ccc(F)cc4)c3)c(-c3cccc(F)c3)c2C(=O)N1` [Example 85, 2-(4-fluorophenyl)-N-{4-[3-(3-fluorophenyl)-6,6-dimethyl-4-oxo-4,5,6,7-tetrahydro-1H-pyrrolo[3,2-c]pyridin-2-yl]pyridin-2-yl}acetamide], for which the pIC50 was 8.72 on CSNK1A1, 8.41 at CSNK1D and under 5.24 in assay [1] (setting [3]).

For `O=C(Nc1cc(-c2[nH]c3ccn(C4CC4)c(=O)c3c2-c2ccc(F)cc2)ccn1)C(CC(F)F)c1ccc(F)cc1` (single isomer, unassigned; (-)) [Example 135, (−)-N-{4-[5-cyclopropyl-3-(4-fluorophenyl)-4-oxo-4,5-dihydro-1H-pyrrolo[3,2-c]pyridin-2-yl]pyridin-2-yl}-4,4-difluoro-2-(4-fluorophenyl)butanamide], the pIC50 at CSNK1A1 was 8.11; at CSNK1D, 8.27; in assay [1] (setting [2]), under 4.70.

Turning to `CC(C(=O)Nc1cc(-c2[nH]c3ccn(C)c(=O)c3c2-c2ccccc2O)ccn1)c1ccc(F)cc1` (racemic) [Example 124, 2-(4-fluorophenyl)-N-{4-[3-(2-hydroxyphenyl)-5-methyl-4-oxo-4,5-dihydro-1H-pyrrolo[3,2-c]pyridin-2-yl]pyridin-2-yl}propanamide], the pIC50 at CSNK1A1 is 8.25; on CSNK1D it was 7.96; in assay [1] (setting [2]) it was under 4.70.
